Assay results reported in EPA's ToxRefDB 2.

Assays:
rabbit [1] = details: Prenatal developmental toxicity study, new zealand white, Oral, Gavage/Intubation, dose end: 20 GD
rat [2] = details: Subchronic oral toxicity in rodents, wistar, Feed, dose end: 90 day, group: systemic
rat [3] = details: Prenatal developmental toxicity study, wistar, Oral, Gavage/Intubation, dose end: 16 GD
mouse [4] = details: Carcinogenicity, cd1, Oral, Feed, dose end: 108 week, group: systemic
mouse [5] = details: Subchronic oral toxicity in rodents, cd1, Feed, dose end: 90 day, group: systemic
rat [6] = details: Multigenerational reproductive toxicity study, other, Oral, Feed, dose end: 2 generation
rabbit [7] = details: Prenatal developmental toxicity study, new zealand white, Oral, Gavage/Intubation, dose end: 28 GD
rat [8] = details: Subchronic oral toxicity in rodents, sprague dawley, Feed, dose end: 13 week, group: systemic
rat [9] = details: Subchronic inhalation toxicity, wistar, Whole-Body, dose end: 78 day, group: systemic, systemic / organ weight / kidney / nos + systemic / organ weight / liver / nos + systemic / organ weight / ovary / nos + systemic / …
rat [10] = details: Combined chronic toxicity/carcinogenicity; sprague dawley; Oral; Feed; dose end: 104 week; group: systemic; systemic / hematology / blood clotting / blood clotting - thromboplastin time + systemic / hematology / platelet / platelet + systemic / …
dog [11] = details: Chronic toxicity; beagle; Oral; Feed; dose end: 52 week; group: systemic; systemic / hematology / blood clotting / blood clotting - prothrombin time + systemic / hematology / erythrocyte (rbc) count differential / …
rat [12] = details: Prenatal developmental toxicity study, sprague dawley, Oral, Gavage/Intubation, dose end: 17 GD
mouse [13] = details: Carcinogenicity; cd1; Oral; Feed; dose end: 78 week; group: systemic; systemic / in life observation / clinical signs / alopecia + systemic / in life observation / mortality / mortality + systemic / pathology …
rat [14] = details: Multigenerational reproductive toxicity study, other, Oral, Feed, dose end: 2 generation; remark: listed apart in the source
rat [15] = details: Subchronic oral toxicity in rodents, fischer, Feed, dose end: 13 week, group: systemic
dog [16] = details: Chronic toxicity, beagle, Oral, Capsule, dose end: 52 week, group: systemic
[17] = group: developmental, developmental / developmental malformation / bone / delayed ossification + developmental / developmental malformation / bone / short …
[18] = group: maternal, systemic / in life observation / body weight / body weight loss + systemic / in life observation / clinical signs / inappetence + systemic…
[19] = systemic / organ weight / heart / absolute + systemic / organ weight / heart / relative to body weight + systemic / clinical chemistry / …
[20] = group: developmental, developmental / developmental malformation / bone / delayed ossification + developmental / developmental malformation / bone / unossified + …
[21] = group: maternal, systemic / in life observation / body weight / body weight gain + systemic / in life observation / food consumption / food consumption
[22] = systemic / in life observation / body weight / body weight gain + systemic / in life observation / mortality / mortality
[23] = systemic / in life observation / body weight / body weight gain + systemic / in life observation / mortality / mortality + systemic / …
[24] = systemic / hematology / erythrocyte (rbc) count differential / erythrocyte (rbc) + systemic / hematology / hematocrit (hct) / hematocrit (…
[25] = group: offspring, systemic / organ weight / liver / relative to body weight
[26] = group: offspring, systemic / organ weight / liver / relative to body weight + systemic / in life observation / body weight / offspring (pup) weight + systemic…
[27] = group: parental, systemic / organ weight / thyroid gland / absolute
[28] = group: developmental, systemic / in life observation / body weight / fetal weight
[29] = group: maternal, reproductive / reproductive performance / aborted / aborted + reproductive / reproductive performance / postimplantation loss / …
[30] = systemic / clinical chemistry / alanine aminotransferase (alt/sgpt) / alanine aminotransferase (alt/sgpt) + systemic / clinical chemistry / …
[31] = group: developmental, systemic / in life observation / clinical signs / mobility + systemic / in life observation / clinical signs / rearing activity + …
[32] = group: maternal, systemic / in life observation / clinical signs / salivation
[33] = group: offspring, systemic / in life observation / body weight / offspring (pup) weight
[34] = group: reproductive, reproductive / offspring survival early / dead fetuses / dead fetuses
[35] = systemic / urinalysis / ph / ph
[36] = systemic / pathology microscopic / parathyroid gland / cyst + systemic / pathology microscopic / pituitary gland / cyst

`CCCCOC(=O)[C@@H](C)Oc1ccc(Oc2ccc(C(F)(F)F)cn2)cc1` [Fluazifop-P-butyl] gave an LEL (rabbit [1]; [17]) of 50 mg/kg/day, an LOAEL (rabbit [1]; [17]) of 50 mg/kg/day and an NEL (rabbit [1]; [17]) of 10 mg/kg/day. It also gave an NOAEL (rabbit [1]; [17]) of 10 mg/kg/day, an LEL (rabbit [1]; [18]) of 50 mg/kg/day and an LOAEL (rabbit [1]; [18]) of 50 mg/kg/day. For the same compound, the NEL (rabbit [1]; [18]) was 10 mg/kg/day, the NOAEL (rabbit [1]; [18]) was 10 mg/kg/day and the LEL (rat [2]; [19]) was 0.5 mg/kg/day. For the same compound, the NEL (rat [2]; [19]) was under 0.5 mg/kg/day, the LOAEL (rat [2]; systemic / organ weight / spleen / absolute + systemic / organ weight / spleen / relative to body weight + systemic / hematology / …) was 5 mg/kg/day and the NOAEL (rat [2]; systemic / organ weight / spleen / absolute + systemic / organ weight / spleen / relative to body weight + systemic / organ weight / brain…) was 0.5 mg/kg/day. For the same compound, the LEL (rat [3]; [20]) was 20 mg/kg/day, the LOAEL (rat [3]; [20]) was 20 mg/kg/day and the NEL (rat [3]; [20]) was 1 mg/kg/day. It also gave an NOAEL (rat [3]; [20]) of 1 mg/kg/day, an LOAEL (rat [3]; group: maternal, systemic / in life observation / body weight / body weight gain) of 300 mg/kg/day and an LEL (rat [3]; [21]) of 300 mg/kg/day. It also gave an NEL (rat [3]; [21]) of 20 mg/kg/day and an NOAEL (rat [3]; [21]) of 20 mg/kg/day.

`CCOc1ccc(C(C)(C)COCc2cccc(Oc3ccccc3)c2)cc1` [Etofenprox] showed an LEL (mouse [4]; [22]) of 10.4 mg/kg/day, an LOAEL (mouse [4]; [22]) of 10.4 mg/kg/day and an NEL (mouse [4]; [23]) of 3.1 mg/kg/day. The NOAEL (mouse [4]; [23]) was 3.1 mg/kg/day, the LOAEL (mouse [5]; [24]) was 375 mg/kg/day and the NEL (mouse [5]; [24]) was 6.1 mg/kg/day. For the same compound, the NOAEL (mouse [5]; [24]) was 60 mg/kg/day, the LEL (mouse [5]; systemic / hematology / mean corpuscular (cell) volume (mcv) / mean corpuscular (cell) volume (mcv) + systemic / hematology / monocytes / …) was 60 mg/kg/day and the LEL (rat [6]; [25]) was 35 mg/kg/day. For the same compound, the LOAEL (rat [6]; [25]) was 35 mg/kg/day, the NEL (rat [6]; [26]) was 5 mg/kg/day and the NOAEL (rat [6]; [26]) was 5 mg/kg/day. For the same compound, the LOAEL (rat [6]; group: parental, systemic / organ weight / liver / relative to body weight) was 35 mg/kg/day, the NOAEL (rat [6]; group: parental, systemic / organ weight / liver / relative to body weight + systemic / in life observation / clinical signs / discharge on cageboard + …) was 5 mg/kg/day and the LEL (rat [6]; [27]) was 5 mg/kg/day. It also gave an NEL (rat [6]; [27]) of under 5 mg/kg/day, an LEL (rabbit [7]; [28]) of 300 mg/kg/day and an LOAEL (rabbit [7]; [28]) of 300 mg/kg/day. For the same compound, the NEL (rabbit [7]; [28]) was 100 mg/kg/day, the NOAEL (rabbit [7]; [28]) was 100 mg/kg/day and the LEL (rabbit [7]; [29]) was 300 mg/kg/day. The LOAEL (rabbit [7]; [29]) was 300 mg/kg/day, the NEL (rabbit [7]; [29]) was 100 mg/kg/day and the NOAEL (rabbit [7]; [29]) was 100 mg/kg/day. For the same compound, the LOAEL (rat [8]; [30]) was 120 mg/kg/day, the NOAEL (rat [8]; [30]) was 20 mg/kg/day and the LEL (rat [8]; systemic / clinical chemistry / glucose / glucose) was 23 mg/kg/day. The NEL (rat [8]; systemic / clinical chemistry / glucose / glucose + systemic / clinical chemistry / alanine aminotransferase (alt/sgpt) / alanine …) was 3.8 mg/kg/day, the LEL (rat [9]) was 52.3 mg/kg/day and the LOAEL (rat [9]) was 52.3 mg/kg/day. It also gave an NEL (rat [9]) of 10.6 mg/kg/day, an NOAEL (rat [9]) of 10.6 mg/kg/day and an LEL (rat [10]) of 1.1 mg/kg/day. It also gave an LOAEL (rat [10]) of 25.5 mg/kg/day, an NEL (rat [10]) of under 1.1 mg/kg/day and an NOAEL (rat [10]) of 3.7 mg/kg/day. The LEL (dog [11]) was 339 mg/kg/day, the LOAEL (dog [11]) was 339 mg/kg/day and the NEL (dog [11]) was 32.2 mg/kg/day. For the same compound, the NOAEL (dog [11]) was 32.2 mg/kg/day, the LEL (rat [12]; group: developmental, systemic / in life observation / clinical signs / mobility + systemic / in life observation / clinical signs / rearing activity) was 250 mg/kg/day and the LOAEL (rat [12]; [31]) was 5000 mg/kg/day. It also gave an NEL (rat [12]; [31]) of 12.5 mg/kg/day, an NOAEL (rat [12]; [31]) of 250 mg/kg/day and an LOAEL (rat [12]; group: maternal, systemic / in life observation / clinical signs / anogenital staining + systemic / in life observation / clinical signs / scabbing) of 5000 mg/kg/day. The LEL (rat [12]; [32]) was 12.5 mg/kg/day, the NEL (rat [12]; [32]) was under 12.5 mg/kg/day and the NOAEL (rat [12]; group: maternal, systemic / in life observation / clinical signs / salivation + systemic / in life observation / clinical signs / anogenital staining + …) was 250 mg/kg/day.

`Cc1ccc(-c2c(Cl)nc(C#N)n2S(=O)(=O)N(C)C)cc1` [Cyazofamid] was tested, and the LEL (mouse [13]) was 985 mg/kg/day, the LOAEL (mouse [13]) was 985 mg/kg/day and the NEL (mouse [13]) was 94.8 mg/kg/day. The NOAEL (mouse [13]) was 94.8 mg/kg/day, the LEL (rat [14]; [33]) was 1000 mg/kg/day and the LOAEL (rat [14]; [33]) was over 1000 mg/kg/day. The NEL (rat [14]; [33]) was 100 mg/kg/day, the NOAEL (rat [14]; [33]) was at least 1000 mg/kg/day and the LEL (rat [14]; [34]) was 1000 mg/kg/day. The LOAEL (rat [14]; [34]) was over 1000 mg/kg/day, the NEL (rat [14]; [34]) was 100 mg/kg/day and the NOAEL (rat [14]; [34]) was at least 1000 mg/kg/day. For the same compound, the LOAEL (rat [15]; systemic / pathology microscopic / kidney / basophilia + systemic / urinalysis / protein / protein) was 294 mg/kg/day, the NOAEL (rat [15]; systemic / pathology microscopic / kidney / basophilia + systemic / urinalysis / protein / protein + systemic / urinalysis / ph / ph + …) was 29.5 mg/kg/day and the LEL (rat [15]; [35]) was 0.6 mg/kg/day. It also gave an NEL (rat [15]; [35]) of under 0.6 mg/kg/day, an LOAEL (dog [16]; [36]) of 1000 mg/kg/day and an NEL (dog [16]; [36]) of 40 mg/kg/day. The NOAEL (dog [16]; [36]) was 200 mg/kg/day and the LEL (dog [16]; systemic / pathology microscopic / pituitary gland / cyst) was 200 mg/kg/day.
